Experimental data: patent US5304369A, “Chlorohexidine adduct and method of preparing same” (Ivoclar AG, priority 1991, dated 1994)
Values after ≈ are worked out from the molar mass of the structure shown. Read-outs that look alike come from different tables or passages of the source. Each block holds one compound with its values, some of them ahead of it.

What was measured:
[1] = background, cited from earlier work
[2] = tested on: Streptococcus mutans; assay: Agar diffusion test with Streptococcus mutans (inhibiting zone diameters); type: cell-based; conditions: for Bactericidal effectiveness (in words): concentrations smaller than or equal to 0.01 wt.-%; for Antibacterial action (in words): 0.003 wt.-%
Experimental: For this purpose, culture suspensions of Streptococcus mutans were added to a liquid Agar comprising yeast extract and dextrose. After the Agar plates had solidified, a hole of 10 mm diameter was cut out, into which 0.1 ml of the solution to be tested was poured in each case. After 24 hours of incubation at 37° C., the diameters of the inhibiting zones were measured for each sample, which were duplicated in each case.

[3] = tested on: Streptococcus mutans; conditions: cited from earlier work
[4] = higher concentrations; cited from earlier work
[5] = Solubility in common solvents and reactive diluents; type: physicochemical
[6] = Side-effects in use (bitter taste, discolorations, irritations of the mucosa)
[7] = 0.03 wt. %, 0.1 ml in 10 mm hole, 24 hours, 37° C.

SMILES: [H]/N=C(\N/C(=N/[H])NCCCCCCNC(=N)NC(=N)Nc1ccc(Cl)cc1)Nc1ccc(Cl)cc1 [diacetate]
Solubility (in words) [1]: sparingly soluble

SMILES: [H]/N=C(\N/C(=N/[H])NCCCCCCNC(=N)NC(=N)Nc1ccc(Cl)cc1)Nc1ccc(Cl)cc1 [Solution A]
zone of inhibition at 0.003 % ([2]; Streptococcus mutans, 24 h, 0.003 wt. %, 0.1 ml in 10 mm hole, 24 hours, 37° C., * = Not effective, read-out: Inhibiting zone diameter): 11 mm
zone of inhibition at 0.01 % ([2]; Streptococcus mutans, 24 h, 0.01 wt. %, 0.1 ml in 10 mm hole, 24 hours, 37° C., read-out: Inhibiting zone diameter): 13 mm
zone of inhibition at 0.03 % ([2]; Streptococcus mutans, 24 h, 0.03 wt. %, 0.1 ml in 10 mm hole, 24 hours, 37° C., read-out: Inhibiting zone diameter): 17 mm
Solubility (in words) ([1]; listed as digluconate): water-soluble

SMILES: [H]/N=C(\N/C(=N/[H])NCCCCCCNC(=N)NC(=N)Nc1ccc(Cl)cc1)Nc1ccc(Cl)cc1 [chlorohexidine, 1,6-bis-(N^5-p-chlorophenyl-N'-diguanido)-hexane]
Bactericidal effectiveness (in words) [2]: clearly exceeded
Effectiveness against bacteria of the type Streptococcus mutans (in words) [3]: effective
Bactericidal effect vis-a-vis Streptococcus mutans (in words) ([3]; small concentrations): greatly weakened
Dis-colorations of the tongue, teeth, prostheses and fillings [4]: can lead to unwanted dis-colorations

SMILES: [F][Sn][F] [Solution C, stannous difluoride]
Inhibiting zone diameter ([2]; 0.003 wt. %, 0.1 ml in 10 mm hole, 24 hours, 37° C., * = Not effective): 10 mm
Antibacterial action (in words) [2]: Not effective
Antibacterial action (in words) ([2]; listed as stannous difluoride): an antibacterial action can no longer be detected
Inhibiting zone diameter ([2]; 0.01 wt. %, 0.1 ml in 10 mm hole, 24 hours, 37° C.): 11 mm
Inhibiting zone diameter [2, 7]: 20 mm
Antibacterial effectiveness (in words) ([2]; 0.03 wt.-%): even stronger action

Solubility ([5]; Acetone): 0.03 wt. %
Solubility ([5]; Decandiol dimethacrylate (D3 MA)): < 0.005 wt. %
Solubility ([5]; Ethanol): 0.005 wt. %
Solubility ([5]; Ethyl acetate): 0.02 wt. %
Solubility ([5]; Triethylene glycol dimethacrylate (SR-205)): < 0.005 wt. %
Solubility ([5]; Water (pH value 2 to 9.7), read-out: Solubility): 300 µg/mL (≈ 594 µM)
Solubility (in words) ([5]; common solvents): quite a low solubility
SMILES: [H]/N=C(\N/C(=N/[H])NCCCCCCNC(=N)NC(=N)Nc1ccc(Cl)cc1)Nc1ccc(Cl)cc1 [chlorohexidine adduct, chlorohexidine hexahydrofluoride]
Inhibiting zone diameter ([2]; 0.003 wt. %, 0.1 ml in 10 mm hole, 24 hours, 37° C., * = Not effective, listed as Solution B): 12 mm
Antibacterial effectiveness (in words) ([2]; 0.01 to 0.003 wt.-%): still very high
Inhibiting zone diameter ([2]; 0.01 wt. %, 0.1 ml in 10 mm hole, 24 hours, 37° C., listed as Solution B): 15 mm
Inhibiting zone diameter [2, 7]: 17 mm
Antibacterial effectiveness (in words) ([2]; 0.03 wt.-%): comparable with that of chlorohexidine gluconate
Antibacterial effectiveness (in words) ([2]; 0.03 wt.-%, listed as adduct according to the invention): completely comparable
Bactericidal effectiveness (in words) [2]: clearly superior to stannous difluoride
Unwanted side-effects (bitter taste, discolorations of tooth materials, irritations of the mucosa) [6]: no unwanted side-effects
